Key:
[1] = system: mice; experiment: Effects observed in mice after i.p. injection (CNS stimulation, diarrhea); assay type: in vivo
Protocol: In addition, two further tertiary amide compounds, BJ and BT, produced diarrhea in the mice 30 minutes after i.p. injection of 100 mg/kg of each.

[2] = system: mice; experiment: Maximal Electroshock Seizure (MES) test, mice i.p.; assay type: in vivo; settings: for ED50: Mus musculus, ip
[3] = system: mice; experiment: Subcutaneous Metrazol Seizure threshold (s.c. MET) test, mice i.p.; assay type: in vivo; settings: for ED50: Mus musculus
[4] = system: mice; experiment: 6 Hz (minimal clonic seizure) model, mice i.p.; assay type: in vivo; settings: for ED50: Mus musculus, ip
[5] = system: mice; experiment: Corneal kindled mouse model; assay type: in vivo; settings: for ED50: Mus musculus
[6] = system: rats; experiment: MES test, rats p.o.; assay type: in vivo
[7] = system: C3A hepatocyte cells; experiment: ACTIVTox LDH release assay; assay type: cell-based; settings: for LDH release, mean fold control: at 100 μM, C3A hepatocyte cells, value below 1.75 = no cyto- or hepatotoxic activity; for cyto- or hepatotoxicity, ACTIVTox data: at physiologically relevant concentrations (i.e., <100 µM)
Protocol: Compounds A, I, H, and F were tested by Stem Cell Innovations, Inc. (Houston, TX) in their ACTIVTox® Human Liver Cell-based assays (using C3A hepatocyte cells). Specifically, the compounds were tested in the LDH release assay, which determines the release of Lactate DeHydrogenase (an indicator of cell death) at various concentrations of test compound.
A concentration of 100 µM of test compound is a much higher level of exposure to liver cells than would ever be expected under physiological conditions. Therefore, using 100 μM as a standard test concentration (for comparative purposes), the ratio of the absorbance (which measures the level of LDH release) resulting from the presence of the test compound versus the negative control is a value known as the “average (or mean) fold control” (Average Fold Control=Average of Absorbance/Average of Negative Control).

[8] = system: C3A hepatocyte cells; experiment: ACTIVTox Cell Proliferation Assay; assay type: cell-based; settings: at a concentration of 100 μM
[9] = system: mice; experiment: Minimal motor impairment (MID50), mice i.p.; settings: for MID50 (median minimal motor impairment dose): mice, i.p.
Protocol: (§1) The animal testing was performed according to methods known in the relevant art.

[10] = system: rats; experiment: Pilocarpine-induced Status Epilepticus in Rats (prevention; intervention @ 30 min); settings: Rattus norvegicus; for responders at 65 mg/kg: read-out: Prevention, Protection
Protocol: The animal testing was performed using the protocols developed in the Anticonvulsant Screening Program (ASP) at the National Institute of Neurological Disorders and Stroke (NINDS), National Institutes of Health (NIH).

[11] = system: SMN2 promoter; experiment: SMN2 promoter β-lactamase reporter assay in NSC34 motor neuron-like cells; assay type: cell-based; settings: treatment for 19 hours at a concentration of 1 μM
Protocol: FIG. 30 illustrates a screen for SMN2 expression of a number of compounds described herein.
SMN2 promoter activity was measured using NSC34 motor neuron-like cells stably transfected with a β-lactamase (BLA) reporter gene under the control of a 3.4-kilobase fragment of the SMN2 promoter. D156844 was used as a positive control for this assay.

[12] = system: mice; experiment: Audiogenic Seizure susceptible (AGS) test, mice i.p.; assay type: in vivo; settings: Mus musculus, ip
[13] = system: rats; experiment: Minimal motor impairment (MID50), rats p.o.; assay type: in vivo
[14] = system: rats; experiment: s.c. MET test, rats p.o.; assay type: in vivo; settings: Rattus norvegicus, p.o.
[15] = system: rats; experiment: Hippocampal Kindled Rats model; assay type: in vivo; settings: Rattus norvegicus
[16] = system: rat dopaminergic N27 cells; experiment: N27 protection assay against oxidative stress (H2O2 or MPP+; MTT and LDH); assay type: cell-based; settings: drug 24 hours before 200 μM H2O2 or 640 μM MPP+
Description: FIGS. 20A-25D data are shown illustrating neuroprotective and neuroregenerative effects observed in rat dopaminergic N27 cells. Rat dopaminergic N27 cells are commonly used in in vitro and in vivo model systems for studying Parkinson's disease. Parkinson's disease is a neurodegenerative disorder of the central nervous system that affects more than 6 million people worldwide. The motor symptoms of Parkinson's disease result from the death of dopamine generating cells in the substantia nigra, a region of the midbrain.
The N27 rat dopaminergic neuron cell line was harvested from E12 rat mesencephalic tissue and was transfected with SV40 to immortalize the cell line. The N27 cell line, when injected into the striata of 6-hydroxydopamine-lesioned rats (an animal model of PD) caused a time-dependent improvement in neurological deficits. This immortalized cell line has been carefully characterized in studies of dopamine biosynthesis, neurotoxicity and used as a dopaminergic neuron model studies.
The N27 in vitro Parkinson's disease model included a test of cell viability and cell toxicity in response to exposure to oxidative stress (e.g., either 200 μM H2O2 or 640 μM MPP+).
Cell viability was tested using the MTT assay. The MTT assay is a colorimetric analysis based on the activities of mitochondrial NAD(P)H-dependent cellular oxidoreductase enzymes. These enzymes are capable of reducing the tetrazolium dye, MTT [3-(4,5-dimethylthiazol-2-yl)-2,5-diphenyltetrazolium] bromide, to an insoluble formazan (purple). […] More viable cells equal more accumulation of the insoluble formazan dye.
Cell toxicity was tested using the […] (LDH) assay. Cells that are stressed secrete LDH. In general, the more cells are stressed, the LDH they secrete into their media. The LDH assay is a reliable colorimetric assay to measure quantitatively the […] (LDH) that is released into the cell culture media from damaged cells as a biomarker for cytotoxicity and cytolysis.
FIGS. 20A-25D present data from two types of assays: protection and recovery assays. In the protection assays, the drug candidate was applied to the cells at various concentrations for 24 hours, followed by the exposure to oxidative stress (either 200 μM H2O2 or 640 μM MPP+) for measuring neuroprotective effect. H2O2 provides a broad measure of oxidative stress, while MPP+ gives a more specific oxidative stress to dopaminergic neurons.
The protection assay results are shown in panels A-C of FIGS. 20-25 In the recovery assays, the cells were first damaged by exposure to H2O2 and then various concentrations of the drug were applied to the cells. The results for the recovery assays are shown the D panels of FIGS. 20-25.

[17] = system: type II SMA fibroblasts (GM03813); experiment: SMN protein localization, gem counting in type II SMA fibroblasts; assay type: cell-based; settings: 100 nM-10 μM, 5 days
Protocol: To validate the SMN2 promoter and exon 7 screens, the effects of compounds H, H (acid form), AY, F, BX, and BY were evaluated on the basis of expression and localization of SMN protein in type II SMA fibroblasts (GM03813). In a normal cell, SMN protein localized within the nucleus to discreet foci known as gems. In SMN-deficient SMA cells, the number of gems is greatly diminished. Although the function of gems is unknown, it is believed that they are somehow involved in the snRNP assembly function of SMN. Gem counting can, therefore, be considered an assay for SMN function.
GM03813 fibroblasts were treated with different doses (100 nM-10 μM) of compounds H, H (acid form), AY, F, BX, and BY for 5 days. SMN immunostaining was then completed on these cells and the number of gems was counted in 100 randomly-selected nuclei. […] In fact, the gem counts at the highest dose of compound H approach those observed for carrier fibroblasts (GM03814). When compared against treatment with 1 μM D157495—a D156844 derivative, all of the compounds tested performed as well as or, even better than D157495.

[18] = in vivo; settings: mouse, ip
Protocol: as §1

Question: Which “effect produced in the mice” value ([1]; 30 minutes after i.p. injection of 100 mg/kg) does the source give for `CC(CC(=O)N1CCCC(C(N)=O)C1)c1ccc(OC(F)(F)F)cc1` (stereo not drawn) [BT, 1-[3-(4-Trifluoromethoxy-phenyl)-butyryl]-piperidine-3-carboxylic acid amide] here?
Answer: diarrhea

Question: Which results are given for `CC(CC(N)=O)c1cccc(OC(F)(F)F)c1` (stereo not drawn) [I, 3-[3-(trifluoromethoxy)-phenyl]butyramide]?
Answer: ED50 ([2]; mice): < 100 mg/kg; MES, fraction of animals ([2]; mice i.p., 100 mg/kg @ 0.5 hr): 3/3 @0.5,; MES, fraction of animals ([2]; mice i.p., 100 mg/kg @ 4.0 hr): 3/3 @ 4.0 hr; ED50 ([3]; mice, i.p.): ≤ 100 mg/kg; s.c. MET, fraction of animals ([3]; mice i.p., 100 mg/kg @ 0.5 hr): 1/1 @0.5,; s.c. MET, fraction of animals ([3]; mice i.p., 100 mg/kg @ 4.0 hr): 1/5 @ 4.0 hr; 6 Hz (32 mA), fraction of animals ([4]; mice i.p., 50 mg/kg @ 0.25 hr): 3/4; 6 Hz (32 mA), fraction of animals ([4]; mice i.p., 50 mg/kg @ 0.5 hr): 2/4; 6 Hz (32 mA), fraction of animals ([4]; mice i.p., 100 mg/kg @ 4.0 hr): 2.0 and 1/4; Corneal Kindled, Average seizure score ([5]; mice i.p., 100 mg/kg @ 0.5 hr): score is 0:; Corneal Kindled, fraction of animals ([5]; mice i.p., 100 mg/kg @ 0.5 hr): 4/4 @; activity in the MES test ([6]; at 30 mg/kg): activity; LDH release, mean fold control [7]: 1.03; cyto- or hepatotoxicity, ACTIVTox data [7]: not cyto- or hepatotoxic; Cell Proliferation Assay, mean fold control [8]: 1.25; toxicity to proliferating cells [8]: non-toxic; MID50, fraction of animals ([9]; mice i.p., 100 mg/kg @ 0.5 hr): 8/8 @0.50 hr,; MID50 (median minimal motor impairment dose) [9]: <100 mg/kg; responders at 130 mg/kg ([10]; 0.5 h, read-out: Intervention @ 30 min, Protection): 100%; responders at 65 mg/kg [10]: 86%

Question: What does the source list for `CC(CC(=O)N1CCCCC1)c1ccc(OC(F)(F)F)cc1` (stereo not drawn) [BH, 1-Piperidin-1-yl-3-(4-trifluoromethoxy-phenyl)-butan-1-one]?
Answer: activity in the s.c. MET test ([3]; mice, at 300 mg/kg): activity; CNS-stimulating effect observed ([1]; mice, on injection): vocalization and hyperactivity; duration of vocalization and hyperactivity ([1]; mice, on injection): 5 to 6 min; SMN2 promoter activity [11]: increased SMN2 promoter activity

Question: With `CC(CC(N)=O)c1ccc(C(F)(F)F)cc1` (stereo not drawn) [F, 3-[4-(trifluoromethyl)-phenyl]butyramide] as the molecule, how does the ED50 ([2]; mice) read?
Answer: 85.3 mg/kg

Question: And the ED50 ([2]; mice i.p., @ 2.0 hrs)?
Answer: 85.3 mg/kg

Question: What about the ED50 ([3]; mice i.p., @ 1.0 hr) of the same molecule?
Answer: 85.5 mg/kg

Question: And the ED50 ([3]; mice, i.p.)?
Answer: 85.5 mg/kg

Question: And the ED50 ([12]; mice)?
Answer: 41.3 mg/kg

Question: What about the ED50 ([12]; mice i.p., @ 2.0 hrs) of the same molecule?
Answer: 41.3 mg/kg

Question: And the ED50 ([4]; mice i.p., @ 0.5 hrs, read-out: 6 Hz (32 mA) ED50)?
Answer: 80.8 mg/kg

Question: And the ED50 ([4]; mice, i.p., read-out: 6 Hz ED50)?
Answer: 80.8 mg/kg

Question: And the ED50 ([5]; ip, mice i.p., @1.0 hrs, read-out: Corneal Kindled ED50)?
Answer: 60.6 mg/kg

Question: And the ED50 ([5]; read-out: ED50, corneal kindled mouse model)?
Answer: 60.6 mg/kg

Question: What about the “seizure score, corneal kindled mouse model” value ([5]; at 100 mg/kg) of the same molecule?
Answer: zero

Question: What about the MID50 [13] of the same molecule?
Answer: >500 (none observed) mg/kg

Question: What about the ED50 ([6]; Rattus norvegicus, po) of the same molecule?
Answer: 26.4 mg/kg

Question: What about the ED50 [14] of the same molecule?
Answer: > 250 mg/kg

Question: And the ED50 [15]?
Answer: 29 mg/kg

Question: What about the “LDH release, mean fold control” value [7] of the same molecule?
Answer: 1.47

Question: And the “cyto- or hepatotoxicity, ACTIVTox data” value [7]?
Answer: not cyto- or hepatotoxic

Question: And the “neuroprotective effect against H2O2 and MPP+ oxidative stresses (MTT and LDH assays)” value [16]?
Answer: statistically significant, dose-dependent neuroprotection

Question: What about the “gem counts (SMN immunostaining, 100 nuclei)” value [17] of the same molecule?
Answer: increase gem counts in a dose-dependent manner

Question: What about the TD50 [18] of the same molecule?
Answer: > 200 mg/kg

Question: And the “MID50 (TD50)” value ([9]; mice i.p., @ 0.25 hr)?
Answer: 208.37

Question: And the “MID50 (median minimal motor impairment dose)” value [9]?
Answer: 208.37 mg/kg

Question: And the responders at 65 mg/kg [10]?
Answer: 14%

From US12486218B2, “Compounds advantageous in the treatment of central nervous system diseases and disorders” (AurimMed Pharma, Inc., priority 2008, dated 2025)
